Measured values from patent US20230357166A1, “PIPERAZINE-BASED CATIONIC LIPIDS” (TRANSLATE BIO, INC., priority 2020, published 2023).

system: male CD1 mice; experiment: Delivery of Firefly Luciferase (FFL) mRNA by intratracheal administration of lipid nanoparticles; assay type: in vivo; conditions: lipid nanoparticles (Process A) with FFL mRNA, cationic lipid, DMG-PEG2000, cholesterol and DOPE (40:5:25:30 or 45:5:20:30 mol %); single intratracheal aerosol administration; IVIS imaging approximately 24 hours post-dose; FIG. 1
Description: One exemplary process for lipid nanoparticle formulation is Process A of WO 2018/089801 (see, e.g., Example 1 and FIG. 1 of WO 2018/089801). Process A (“A”) relates to a conventional method of encapsulating mRNA by mixing mRNA with a mixture of lipids, without first pre-forming the lipids into lipid nanoparticles. In an exemplary process, an ethanol lipid solution and an aqueous buffered solution of mRNA were prepared separately. A solution of mixture of lipids (cationic lipid, helper lipids, zwitterionic lipids, PEG lipids etc.) was prepared by dissolving lipids in ethanol. The mRNA solution was prepared by dissolving the mRNA in citrate buffer. Then, these two solutions were mixed using a pump system. In some instances, the two solutions were mixed using a gear pump system. In certain embodiments, the two solutions were mixing using a ‘T’ junction (or “Y” junction). The mixture was then purified by diafiltration with a TFF process. The resultant formulation concentrated and stored at 2-8° C. until further use.
Lipid nanoparticle formulations prepared using Process A comprising FFL mRNA, cationic lipid, DMG-PEG2000, cholesterol and DOPE (40:5:25:30 or 45:5:20:30 mol % ratio) were administered to male CD1 mice (6-8 weeks old) by a single intratracheal aerosol administration via a Microsprayer® (50 ul/animal) while under anesthesia. At approximately 24 hours post-dose, the animals were dosed with luciferin at 150 mg/kg (60 mg/ml) by intraperitoneal injection at 2.5 ml/kg. After 5-15 minutes, all animals were imaged using an IVIS imaging system to measure luciferase production in the lung.

Row | Structure (SMILES) | in vivo protein production (FFL protein; luciferase production in the lung)
1 | CCCCCCCCCCCCC(O)CN(CCCCC(=O)OCCN1CC(C)N(CCOC(=O)CCCCN(CC(O)CCCCCCCCCCCC)CC(O)CCCCCCCCCCCC)CC1C)CC(O)CCCCCCCCCCCC (stereo not shown) [Compound A19] | high levels of in vivo protein production
2 | CCCCCCCCCCC(O)CN(CCCCC(=O)OCCN1CC(C)N(CCOC(=O)CCCCN(CC(O)CCCCCCCCCC)CC(O)CCCCCCCCCC)CC1C)CC(O)CCCCCCCCCC (stereo not shown) [Compound A18] | high levels of in vivo protein production
3 | CC(C)CCCCCCCOC(=O)CCN(CCCCC(=O)OCCN1CC(C)N(CCOC(=O)CCCCN(CCC(=O)OCCCCCCCC(C)C)CCC(=O)OCCCCCCCC(C)C)CC1C)CCC(=O)OCCCCCCCC(C)C (stereo not shown) [Compound D23] | high levels of in vivo protein production
4 | CCCCCCCCC(O)CN(CCCC(=O)OCCN1CC(C)N(CCOC(=O)CCCN(CC(O)CCCCCCCC)CC(O)CCCCCCCC)CC1C)CC(O)CCCCCCCC (stereo not shown) [Compound A9] | high levels of in vivo protein production
5 | CCCCCCCCOC(=O)CCN(CCCCC(=O)OCCN1CC(C)N(CCOC(=O)CCCCN(CCC(=O)OCCCCCCCC)CCC(=O)OCCCCCCCC)CC1C)CCC(=O)OCCCCCCCC (stereo not shown) [Compound D21] | high levels of in vivo protein production
6 | CCCCCCCCC(O)CN(CCCCC(=O)OCCN1CC(C)N(CCOC(=O)CCCCN(CC(O)CCCCCCCC)CC(O)CCCCCCCC)CC1C)CC(O)CCCCCCCC (stereo not shown) [Compound A17] | high levels of in vivo protein production
7 | CCCCC/C=C\C/C=C\CCCCCCC(O)CN(CCCC(=O)OCCN1CC(C)N(CCOC(=O)CCCN(CC(O)CCCCCC/C=C\C/C=C\CCCCC)CC(O)CCCCCC/C=C\C/C=C\CCCCC)CC1C)CC(O)CCCCCC/C=C\C/C=C\CCCCC (stereo not shown) [Compound A15] | high levels of in vivo protein production
8 | CCCCCCCCC(O)CN(CCCCC(=O)SCCN1CC(C)N(CCSC(=O)CCCCN(CC(O)CCCCCCCC)CC(O)CCCCCCCC)CC1C)CC(O)CCCCCCCC (stereo not shown) [Compound C17] | high levels of in vivo protein production
9 | CCCCCCCCCCCCC(O)CN(CCCC(=O)OCCN1CC(C)N(CCOC(=O)CCCN(CC(O)CCCCCCCCCCCC)CC(O)CCCCCCCCCCCC)CC1C)CC(O)CCCCCCCCCCCC (stereo not shown) [Compound A11] | high levels of in vivo protein production
10 | CCCCCCCCC(O)CN(CCCC(=O)SCCN1CC(C)N(CCSC(=O)CCCN(CC(O)CCCCCCCC)CC(O)CCCCCCCC)CC1C)CC(O)CCCCCCCC (stereo not shown) [Compound C9] | high levels of in vivo protein production
